Experimental data reported in ChEMBL document CHEMBL4339245, “Grayanane Diterpenoids from the Leaves of Rhododendron auriculatum and Their Analgesic Activities” (2019).
Activity calls are given as the source filed them. The rule behind the calls is not given here.

Test system: Mus musculus
Test: Analgesic activity in Kunming mouse model of acetic-acid-induced writhing assessed as inhibition of writhing numbers at 5 mg/kg measured for 30 mins relative to control
Assay type: functional
Parameters: scale not given: the % may be the effect or the level left

| SMILES | Activity |
| --- | --- |
| C=C1[C@@H]2CC[C@@H]3C[C@@]2(C[C@@H](O)[C@@]2(O)[C@H]1C[C@H](O)C2(C)C)C[C@]3(O)CO | 53.7% |
| C=C1[C@H]2C[C@H](O)C(C)(C)[C@]2(O)CC[C@@]23C[C@@H](CC[C@@H]12)[C@](C)(O)C3 | Active |
| C=C1[C@@H]2CC[C@@H]3C[C@@]2(C[C@@H](O)[C@@]2(O)[C@H]1C[C@@H](O)C2(C)C)C[C@@]3(C)O | Active |
| C=C1[C@@H]2CC[C@]3(O)C[C@@]2(C[C@@H](O)[C@@]2(O)[C@@H]1[C@H](O)[C@H](O)C2(C)C)C[C@@]3(C)O | Active |
| C=C1[C@@H]2CC[C@@H]3C[C@@]2(CC[C@@]2(O)[C@H]1C[C@H](O)C2(C)C)C[C@]3(O)CO | Active |
| C=C1[C@H]2C[C@H](O)[C@@](C)(CO)[C@]2(O)CC[C@@]23C[C@@H](CC[C@@H]12)[C@](C)(O)C3 | 58.8% |
| C=C1[C@H]2C[C@H](O)C(C)(C)[C@@]2(O)[C@H](O)C[C@]23C=C(C)[C@H](CC[C@@H]12)C3 | Active |
| C=C1[C@H]2C[C@@H](O)C(C)(C)[C@]2(O)CC[C@@]23C[C@@H](CC[C@@H]12)[C@](C)(O)C3 | 64.1% |
| C=C1[C@@H]2CC[C@]3(O)C[C@@]2(C[C@@H](O)[C@@]2(O)[C@H]1C[C@H](O)C2(C)C)C[C@@]3(C)O | Active |
| C=C1[C@@H]2[C@@H](O)[C@H](O)C(C)(C)[C@@]2(O)[C@H](O)C[C@@]23C[C@@](O)(CC[C@@H]12)[C@](C)(O)C3 | Active |
| CO[C@H]1O[C@]23[C@H](O)C[C@@]45C[C@@](O)(CC[C@H]4[C@H]1[C@@H]2C[C@H](O)C3(C)C)[C@](C)(O)C5 | Active |
| CC1=C2CC[C@]3(O)C[C@@]2(C[C@@H](O)[C@@]2(O)[C@H]1[C@@H](O)[C@H](O)C2(C)C)C[C@@]3(C)O | Active |
| CC1=C2C[C@H](O)C(C)(C)[C@@H]2C(=O)C[C@@]23C[C@@H](CC=C12)[C@](C)(O)C3 | Active |
| CC1=C2CC[C@]3(O)C[C@@]2(C[C@@H](O)[C@@]2(O)[C@H]1C[C@H](O)C2(C)C)C[C@@]3(C)O | 52.3% |
| C=C1[C@@H]2CC[C@@H]3C[C@@]2(CC[C@@]2(O)[C@H]1C[C@H](O)C2(C)C)C[C@@]3(C)O | Active |
| C=C1[C@H]2C[C@H](O)C(C)(C)[C@@]2(O)[C@H](O)C[C@@]23C[C@@H](CC[C@@H]12)[C@](C)(O)C3 | Active |
| C=C1[C@@H]2CC[C@@H]3[C@@H](O)[C@@]2(C[C@@H](O)[C@@]2(O)[C@H]1C[C@H](O)C2(C)C)C[C@@]3(C)O | Active |
| C=C1[C@H]2C[C@H](O)C(C)(C)[C@@]2(O)[C@H](O)C[C@@]23C[C@@](O)(CC[C@@H]12)[C@](C)(O)C3 | Active |
| C=C1[C@@H]2CC[C@@H]3C[C@@]2(C[C@@H](O)[C@@]2(O)[C@H]1C[C@H](O)C2(C)C)C[C@@]3(C)O | Active |
| CC1(C)C2=CC[C@@]34C[C@@H](CC[C@H]3[C@@](C)(O)[C@H]2C[C@@H]1O)[C@](C)(O)C4 | Active |

Test system: Mus musculus
Test: Analgesic activity in Kunming mouse model of acetic-acid-induced writhing assessed as inhibition of writhing numbers at 1 mg/kg measured for 30 mins relative to control
Assay type: functional, organism-based

| SMILES | Activity |
| --- | --- |
| C=C1C2=C(C=C[C@@]34C[C@@H](CC[C@@H]13)[C@](C)(O)C4)C(C)(C)[C@@H](O)C2 | Active |
| C=C1[C@@H]2CC[C@H]3C(C)=C[C@]2(C[C@@H](O)[C@@]2(O)[C@H]1C[C@H](O)C2(C)C)[C@@H]3OC(C)=O | Active |

Test system: Mus musculus
Test: Analgesic activity in Kunming mouse model of acetic-acid-induced writhing assessed as inhibition of writhing numbers at 0.2 mg/kg measured for 30 mins relative to control
Assay type: functional, organism-based

| SMILES | Activity |
| --- | --- |
| CC(=O)O[C@@H]1[C@H]2CC[C@H]3[C@@](C)(O)[C@@H]4C[C@H](O)C(C)(C)[C@@]4(O)[C@H](O)C[C@@]13C[C@@]2(C)O | Active |
| C=C1[C@@H]2CC[C@@H]3[C@@H](OC(C)=O)[C@@]2(C[C@@H](O)[C@@]2(O)[C@H]1C[C@H](O)C2(C)C)C[C@@]3(C)O | Active |

Test system: Mus musculus
Test: Analgesic activity in Kunming mouse model of acetic-acid-induced writhing assessed as inhibition of writhing numbers at 0.04 mg/kg measured for 30 mins relative to control
Assay type: functional, organism-based

| SMILES | Activity |
| --- | --- |
| CN1CC[C@]23c4c5ccc(O)c4O[C@H]2[C@@H](O)C=C[C@H]3[C@H]1C5 | Active |

Test system: Mus musculus
Test: Analgesic activity in Kunming mouse model of acetic-acid-induced writhing assessed as inhibition of writhing numbers at 0.04 to 0.2 mg/kg measured for 30 mins relative to control
Assay type: functional, organism-based

| SMILES | Activity |
| --- | --- |
| CC(=O)O[C@@H]1[C@H]2CC[C@H]3[C@@](C)(O)[C@@H]4C[C@H](O)C(C)(C)[C@@]4(O)[C@H](O)C[C@@]13C[C@@]2(C)O | Active |
| C=C1[C@@H]2CC[C@@H]3[C@@H](OC(C)=O)[C@@]2(C[C@@H](O)[C@@]2(O)[C@H]1C[C@H](O)C2(C)C)C[C@@]3(C)O | Active |
